Experimental data from patent publication US5158947A, “Condensed heterocyclic compounds and psychopharmaceutical composition containing same” (Suntory Limited, priority 1990, dated 1992).

Assays:
σ-receptor = target: T1, σ-receptor (Rattus norvegicus, UniProt Q9R0C9); assay: Affinity to σ-receptor ([3H]3PPP binding, rat cerebra without cerebellum); set-up: species or system Wistar male rats; details: 3 nM [3H]3PPP, 25° C., 90 minutes; non-specific: 1 μM haloperidol; read-out: Affinity to δ-Receptor IC50
T1 construct: all of the cerebra, other than the cerebellum, of Wistar male rats; from tissue; host or cells: rat brain (cerebra without cerebellum), crude washed membranes
T1 sequence (Q9R0C9 whole entry): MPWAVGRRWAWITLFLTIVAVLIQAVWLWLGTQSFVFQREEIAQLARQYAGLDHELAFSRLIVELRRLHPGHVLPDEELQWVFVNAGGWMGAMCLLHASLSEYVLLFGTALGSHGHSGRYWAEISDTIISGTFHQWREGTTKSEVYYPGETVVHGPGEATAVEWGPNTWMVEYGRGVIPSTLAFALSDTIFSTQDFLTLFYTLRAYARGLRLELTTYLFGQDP
Description: The affinities of the present compounds to the […] were determined according to a method described in the "Molecular Pharmacology," Vol. 32, 772-784 (1987).
That is, 50 mM of a Tris-HCl (pH=7.7) buffer solution was added to all of the cerebra, other than the cerebellum, of Wistar male rats, followed by homogenizing for […] in a Polytson® and then centrifugally separating same at 35000 G for 10 minutes. To the resultant precipitate was added the same buffer solution as used above, and the homogenizing and the centrafugalization were repeated. This procedure was repeated once more, and to the final precipitate was added a 50 mM Tris -HCl (pH=8.0) buffer solution and the receptor having a binding capability. In the binding experiments, 3nM [^3 H] propyl-3-(3-hydroxyphenyl) piperidine (i.e., [^3 H]3PPP) was used, and as a non-specific ligand, 1 μM haloperidol was used. After incubation at 25° C. for 90 minutes, the bound ligand was recovered by filtration and the determination was carried out. The filter used was a Whatmen GF/B filter treated with 0.5% polyethylene imine.

[1] = system: locomotor hyperactivity induced by amfoneric acid; assay: Inhibitory activity against locomotor hyperactivity induced by amfoneric acid; assay type: in vivo, ddy male mouse; details: Mus musculus, ip, 100 min, amfoneric acid 2.5 mg/kg s.c., total count over 100 minutes, read-out: Inhibition Rate; for inhibition in vivo at 10 mg/kg: 10 mg/kg intraperitoneal, * 0.05 > P > 0.01, ** 0.01 > P > 0.001; for inhibition in vivo at 30 mg/kg: 30 mg/kg intraperitoneal
Description: The inhibitory activity against locomotor hyperactivity induced by amfoneric acid of the present compounds were determined according to a method described in the "Journal of Pharmacology & Experimental Therapeuties," Vol. 239, 124-131 (1986) by R. T. Matthews et al.
That is, to a ddy male mouse having a body weight of about 25g, were simultaneously administered amfoneric acid (2.5 mg/kg, subcutaneous administration) and the present compound (intraperitoneal administration),and the amount of movement was determined using an apparatus for determining the amount of movement of a mouse. The amount of movement was determined over 100 minutes, and the test of significance thereof was effected for the total count number for 100 minutes by a Manwhitnee test. The value was indicated as the inhibition rate based, as a control, upon the group to which 2.5 mg/kg of amfoneric acid was subcutaneously administered.

catalepsy = assay: Catalepsy; assay type: in vivo, ddy male mice; details: scored after 30, 60, 90, and 120 minutes
Description: To ddy male mice having a body weight of about 25 g was intraperitoneally administered the present compound and the catalepsy was determined after 30, 60, 90, and 120 minutes therefrom. The score of the catalepsy was as follows.
The forelegs of the mouse were placed on an aupper edge of a 5.5 cm height box and the time until the more fulled its forelegs down from the box or the mouse jumped up onto the top of the box was measured and the score was determined based upon the following standard.

| SMILES | IC50 (σ-receptor) | further results |
| --- | --- | --- |
| O=C1COc2ccccc2C(=O)N1CCCCN1CC=C(c2ccccc2)CC1 [Example 12, 4-(4-(4-phenyl-1,2,3,6-tetrahydro)-1-pyridyl)butyl-2,3,4,5-tetrahydro-1,4-benzoxazepine-3,5-dione] | 12.1 nM | – |
| O=C1CSc2ccccc2C(=O)N1CCCCN1CCC(c2ccccc2)CC1 [Example 17, 4-(4-(4-phenyl)-1-piperidinyl)butyl-2,3,4,5-tetrahydro-1,4-benzothiazepine-3,5-dione] | 4 nM | – |
| O=C1c2ccccc2OCCN1CCCCN1CCC(c2ccc(Cl)cc2)CC1 [Example 2, 4-(4-(4-(4-chlorophenyl)-1-piperidinyl)butyl)-2,3,4,5-tetrahydro-1,4-benzoxazepin-5-one] | 11.7 nM | – |
| O=C1CCc2ccccc2C(=O)N1CCCCN1CCC(c2ccccc2)CC1 [Example 22, 2-(4-(4-phenyl)-1-piperidinyl)butyl-1,3,4,5-tetrahydro-2-benzazepine-1,3-dione] | 3.74 nM | inhibition in vivo at 10 mg/kg [1]: 52% |
| O=C1CCc2ccccc2C(=O)N1CCCCCN1CCC(c2ccccc2)CC1 [Example 36, 2-(5-(4-phenyl)-1-piperidinyl)pentyl-1,3,4,5-tetrahydro-2-benzazepine-1,3-dione] | 3.62 nM | – |
| O=C1CNc2ccccc2C(=O)N1CCCCN1CCC(c2ccc(Cl)cc2)CC1 [Example 19] | 16.1 nM | Catalepsy (catalepsy; 20 mg/kg intraperitoneal): - (less than 1); inhibition in vivo at 10 mg/kg [1]: 53% |
| O=C1COc2ccccc2C(=O)N1CCCCN1CCC(c2ccc(Cl)cc2)CC1 [Example 9, 4-(4-(4-(4-chlorophenyl)-1-piperidinyl)butyl)-2,3,4,5-tetrahydro-1,4-benzoxazepine-3,5-dione] | 4.73 nM | – |
| O=C1COc2ccccc2CN1CCCCN1CCC(c2ccccc2)CC1 [Example 4] | 9.22 nM | – |
| CN1CC(=O)N(CCCCN2CCC(c3ccccc3)CC2)C(=O)c2ccccc21 [Example 21, 1-methyl-4-(4-(4-phenyl) -1-piperidinyl)butyl-2,3,4,5-tetrahydro-1,4-benzodiazepine-3,5-dione] | 13.7 nM | Catalepsy (catalepsy; 30 mg/kg intraperitoneal): - (less than 1) |
| O=C1c2ccccc2OCCN1CCCCCN1CCC(c2ccc(Cl)cc2)CC1 [Example 27, 4-(5-(4-(4-chlorochenyl)1-piperidinyl)pentyl)-2,3,4,5-tetrahydro-1,4-benzoxazepin-5-one] | 10.6 nM | – |
| O=C1COc2ccccc2CN1CCCCCN1CCC(c2ccccc2)CC1 [Example 28, 4-(5-(4-phenyl)-1-piperidinyl)pentyl-2,3,4,5-tetrahydro-1,4-benzoxazepin-3-one] | 8.02 nM | – |
| O=C1CSc2ccccc2C(=O)N1CCCCCN1CCC(c2ccccc2)CC1 [Example 32, 4-(5-(4-phenyl)-1-piperidinyl)pentyl-2,3,4,5-tetrahydro-1,4-benzothiazepine-3,5-dione] | 3.95 nM | – |
| O=C1CCc2ccccc2C(=O)N1CCCCCN1CCC(c2ccc(Cl)cc2)CC1 [Example 37, 2-(5-(4-(4-chlorophenyl)-1-piperidinyl)pentyl)-1,3,4,5-tetrahydro-2-benzazepine-1,3-dione] | 8.91 nM | Catalepsy (catalepsy; 30 mg/kg intraperitoneal): - (less than 1); inhibition in vivo at 10 mg/kg [1]: 74% |
| O=C1COc2ccccc2C(=O)N1CCCCN1CCC(c2ccccc2)CC1 [Example 8, 4-(4-(4-phenyl)-1-piperidinyl)butyl-2,3,4,5-tetrahydro-1,4-benzoxazepine-3,5-dione] | 6.61 nM | Catalepsy (catalepsy; 30 mg/kg intraperitoneal): - (less than 1); inhibition in vivo at 30 mg/kg ([1]; * 0.05 > P > 0.01): 73% |
| O=C1CSc2ccccc2C(=O)N1CCCCCN1CCC(c2ccc(Cl)cc2)CC1 [Example 33] | 17.6 nM | – |
| O=C1c2ccccc2OCCN1CCCCCN1CCC(c2ccccc2)CC1 [Example 26, 4-(5-(4-phenyl)-1-piperidinyl)pentyl-2,3,4,5-tetrahydro-1,4-benzoxazepin-5-one] | 10.9 nM | Catalepsy (catalepsy; 30 mg/kg intraperitoneal): - (less than 1); inhibition in vivo at 10 mg/kg [1]: 65% |
| O=C(CCCN1CCC(O)(c2ccc(Cl)cc2)CC1)c1ccc(F)cc1 [Haloperidol, reference compound] | – | Catalepsy (catalepsy; 0.1 mg/kg intraperitoneal, control): ++ (more than 2 but less than 3) |
| O=C1COc2ccccc2C(=O)N1CCCCN1CCC(c2ccccn2)CC1 [Example 14, 4-(4-(4-(2-pyridyl)-1-piperidinyl)butyl)-2,3,4,5-tetrahydro-1,4-benzoxazepine-3,5-dione] | 17.8 nM | – |
| O=C1COc2ccccc2C(=O)N1CCCCCN1CCC(c2ccccc2)CC1 [Example 30, 4-(5-(4-phenyl)-1-piperidinyl)pentyl-2,3,4,5-tetrahydro-1,4-benzoxazepine-3,5-dione] | 4.73 nM | Catalepsy (catalepsy; 30 mg/kg intraperitoneal): - (less than 1); inhibition in vivo at 30 mg/kg ([1]; * 0.05 > P > 0.01): 70% |
| O=C1COc2ccccc2C(=O)N1CCCCCN1CCC(c2ccc(Cl)cc2)CC1 [Example 31] | 7.82 nM | Catalepsy (catalepsy; 30 mg/kg intraperitoneal): - (less than 1) |
| OC(CCCN1CCN(c2ncc(F)cn2)CC1)c1ccc(F)cc1 (centres unmarked) [BMY14802, reference compound] | – | inhibition in vivo at 30 mg/kg ([1]; * 0.05 > P > 0.01): 51% |
| O=C1COc2ccccc2CN1CCCCN1CCC(c2ccc(Cl)cc2)CC1 [Example 5] | 18.7 nM | – |
| O=C1CCc2ccccc2C(=O)N1CCCCN1CCC(c2ccc(Cl)cc2)CC1 [Example 23, 2-(4-(4-(4-chlorophenyl)-1-piperidinyl)butyl)-1,3,4,5-tetrahydro-2-benzazepine-1,3-dione] | 6.4 nM | – |
| O=C1c2ccccc2OCCN1CCCCN1CCC(c2ccccc2)CC1 [Example 1, 4-(4-(4-phenyl)-1-piperidinyl)butyl-2,3,4,5-tetrahydro-1,4-benzoxazepin-5-one] | 14.2 nM | – |
| O=C1COc2ccccc2CN1CCCCCN1CCC(c2ccc(Cl)cc2)CC1 [Example 29] | 10.3 nM | Catalepsy (catalepsy; 30 mg/kg intraperitoneal): - (less than 1); inhibition in vivo at 10 mg/kg [1]: 60% |
| O=C1CNc2ccccc2C(=O)N1CCCCN1CCC(c2ccccc2)CC1 [Example 18, 4-(4-(4-phenyl)-1-piperidinyl)butyl-2,3,4,5-tetrahydro-1,4-benzodiazepine-3,5-dione] | 14.1 nM | Catalepsy (catalepsy; 10 mg/kg intraperitoneal): - (less than 1); inhibition in vivo at 1 mg/kg ([1]; 1 mg/kg intraperitoneal, * 0.05 > P > 0.01): 65%; inhibition in vivo at 10 mg/kg [1]: 90% |
